Here are results for 1 compound from US20210260051A1, “COMBINATION OF EZH2 INHIBITOR AND CHECKPOINT THERAPY FOR THE TREATMENT OF CANCER” (Board of Regents, The University of Texas System, priority 2018, published 2021).

The test system of experiment [1] is inducible regulatory T cells. In words: Luminex-based cytokine analysis of iTreg culture supernatant. In kind it is cell-based, mouse. The settings on record: iTregs differentiated with vs without CPI-1205; FIG. 5C. An excerpt:
(§1) FIGS. 5A-5C: Naïve T cells from FoxP3enhanced green fluorescent protein (eGFP) C57BL/6 mice that were differentiated into iTregs in the presence or absence of CPI-1205. GFP^+FoxP3^+ regulatory T cells were subsequently used for RNA sequencing analysis. (FIG. 5A) Ingenuity Pathway Analysis of RNA sequencing data of regulatory T cells differentiated in the presence of DMSO or CPI-1205. (FIG. 5B) Differentially expressed genes (DEGs) seen following differentiation of inducible regulatory T cells in presence of CPI-1205 or DMSO. (FIG. 5C) Luminex-based cytokine analysis of culture supernatant from inducible regulatory T cells following differentiation with CPI-1205 or DMSO. 2 tailed student t test was used to determine significance; NS, not significant. **p<0.01.
To understand CPI-1205-mediated molecular changes underlying the loss of suppressive activity of regulatory T cells, naïve murine T cells (CD4^+CD25^low CD44^low CD62^hi) from FoxP3-enhanced green fluorescent protein (eGFP) C57BL/6 mice were differentiated into iTregs in the presence or absence of CPI-1205. Purified GFP^+FoxP3^+ regulatory T cells were subsequently used for RNA sequencing analysis. […] The cytokine levels were subsequently examined in the culture supernatant of the iTregs that were differentiated with and without CPI-1205. […]

Experiment [2] concerns GFP+FoxP3+ regulatory T cells (iTregs). In words: RNA sequencing of GFP+FoxP3+ regulatory T cells differentiated with CPI-1205 or DMSO. The note with it: CPI-1205 vs DMSO. In kind it is cell-based, mouse.
Excerpt: as §1
To understand CPI-1205-mediated molecular changes underlying the loss of suppressive activity of regulatory T cells, naïve murine T cells (CD4^+CD25^low CD44^low CD62^hi) from FoxP3-enhanced green fluorescent protein (eGFP) C57BL/6 mice were differentiated into iTregs in the presence or absence of CPI-1205. Purified GFP^+FoxP3^+ regulatory T cells were subsequently used for RNA sequencing analysis. […] The cytokine levels were subsequently examined in the culture supernatant of the iTregs that were differentiated with and without CPI-1205. […] CPI-1205 can also skew the phenotype of iTregs to pro-inflammatory cytokine producing effector-like T cells. In the study, it was noted that EZH2 inhibition leads to decreased expression of not only FoxP3 but also other critical genes, such as NRP1 and BACH2, which are required for regulatory T cell stability (16-18). CPI-1205 treated regulatory T cells seem to acquire the phenotype of so called “exFoxP3” cells which was previously shown to have an activated memory phenotype (Zhou et al., 2009).
In vitro T cell assays. Human peripheral regulatory T cells were isolated from peripheral blood mononuclear cells by enriching for CD4^+CD127^low CD25^+ cells using the EasySep Human Regulatory T Cell Isolation Kit (STEMCELL Technologies, Cambridge, Mass.). For mouse in vitro regulatory T cell differentiation, CD4^+CD25^low CD44^low CD62L^hinaïve splenic T cells were isolated from C57BL/6 mice using BD FACSAria (BD Biosciences, San Jose, Calif.). The cells were then differentiated in the presence of recombinant murine IL-2 (R&D, 402-ML), tumor growth factor-β (TGF-β, R&D 7666-MB), CPI-1205 or dimethyl sulfoxide (DMSO) and cultured for 6 days.
RNA sequencing. RNA was extracted from peripheral CD4 T cells isolated from patients with metastatic melanoma and from in vitro differentiated GFP^+ regulatory T cells. RNA sequencing reactions were performed by Active Motif (Carlsbad, Calif.) and Ocean Ridge Biosciences (Deerfield, Fla.) using an Illumina HiSeq 50-bp platform. For bioinformatics analysis, the raw reads were aligned to the mm10 reference genome using TopHat2. HTSeq count was used to count the raw reads that were uniquely mapped to each gene. DESeq2 was then applied to normalize the raw read counts and identify the differentially expressed genes between the groups. The beta-uniform mixture model was used to fit the p value distribution for multiple testing adjustments. The lists of differentially expressed genes were then used as input into Ingenuity Pathway Analysis for pathway analysis. RNA-sequencing data were deposited in the NCBI's Gene Expression Omnibus database.

For the compound `COc1cc(C)[nH]c(=O)c1CNC(=O)c1c(C)n([C@H](C)C2CCN(CC(F)(F)F)CC2)c2ccccc12` [CPI-1205, N-[(4-methoxy-6-methyl-2-oxo-1H-pyridin-3-yl)methyl]-2-methyl-1-[(1R)-1-[1-(2,2,2-trifluoroethyl)piperidin-4-yl]ethyl]indole-3-carboxamide], the “pro-inflammatory cytokines in the culture supernatant” value in experiment [1] is reported as “significantly increased”. Besides, the “pro-inflammatory pathways (Th-1/Th-2), Ingenuity Pathway Analysis” value in experiment [2] (FIG. 5A) is recorded as “upregulation”. In addition, in experiment [2] (FIG. 5B), the BACH2 expression entry was “decreased”; the FoxP3 expression result is “decreased”; the “effector cytokines and chemokines (differentially expressed genes)” value is listed as “increase”; the “neuropilin 1 (NRP1) expression” value was “decreased”.
